# Measured values from publication PMC4618480.
# Key:
# [1] = on-resin RCM stapling (Rink amide MBHA), 16 mol% Ru catalyst 2 (Grubbs II), then TFA/TIS/H2O cleavage; details: the molecule shown is the open-chain precursor, DCE, 40.0 °C
# [2] = on-resin RCM stapling (Rink amide MBHA), 16 mol% Z-selective Ru catalyst 6 (Mes), then TFA/TIS/H2O cleavage; details: the molecule shown is the open-chain precursor, DCE, 40.0 °C
# [3] = on-resin RCM stapling (Rink amide MBHA), 16 mol% Z-selective Ru catalyst 7 (Dipp), then TFA/TIS/H2O cleavage; details: the molecule shown is the open-chain precursor, DCE, 40.0 °C
# [4] = on-resin RCM stapling (Rink amide MBHA), 16 mol% Ru catalyst 4 (nitro-Hoveyda/Grela), then TFA/TIS/H2O cleavage; details: the molecule shown is the open-chain precursor, DCE, 40.0 °C
# [5] = on-resin RCM stapling (Rink amide MBHA), 16 mol% Ru catalyst 5 (o-tolyl NHC Hoveyda type), then TFA/TIS/H2O cleavage; details: the molecule shown is the open-chain precursor, DCE, 40.0 °C
# [6] = RCM, 10 mol% Ru catalyst 1 (Grubbs I), quenched with ethyl vinyl ether; details: DCE, 2.0 mM, 40.0 °C, 4.0 h
# [7] = RCM, 10 mol% Ru catalyst 2 (Grubbs II), quenched with ethyl vinyl ether; details: DCE, 2.0 mM, 40.0 °C, 4.0 h
# [8] = RCM, 10 mol% Ru catalyst 3 (Hoveyda-Grubbs II), quenched with ethyl vinyl ether; details: DCE, 2.0 mM, 40.0 °C, 4.0 h
# [9] = RCM, 10 mol% Ru catalyst 4 (nitro-Hoveyda/Grela), quenched with ethyl vinyl ether; details: DCE, 2.0 mM, 40.0 °C, 4.0 h
# [10] = RCM, 10 mol% Ru catalyst 5 (o-tolyl NHC Hoveyda type), quenched with ethyl vinyl ether; details: DCE, 2.0 mM, 40.0 °C, 4.0 h
# [11] = RCM, 10 mol% Z-selective cyclometalated Ru catalyst 6 (Mes), quenched with ethyl vinyl ether; details: DCE, 2.0 mM, 40.0 °C, 4.0 h
# [12] = RCM, 10 mol% Z-selective cyclometalated Ru catalyst 7 (Dipp), quenched with ethyl vinyl ether; details: DCE, 2.0 mM, 40.0 °C, 4.0 h
# [13] = on-resin RCM stapling (Rink amide MBHA), 16 mol% Ru catalyst 1 (Grubbs I), then TFA/TIS/H2O cleavage; details: the molecule shown is the open-chain precursor, DCE, 40.0 °C
# [14] = on-resin RCM stapling (Rink amide MBHA), 16 mol% Ru catalyst 3 (Hoveyda-Grubbs II), then TFA/TIS/H2O cleavage; details: the molecule shown is the open-chain precursor, DCE, 40.0 °C
# [15] = from C=CCCOc1ccc(C[C@H](NC(=O)OC(C)(C)C)C(=O)N[C@@H](CC(C)C)C(=O)N[C@@H](CCC=C)C(=O)OC)cc1, 19-membered ring
# [16] = from C=CC[C@H](NC(=O)OC(C)(C)C)C(=O)N[C@@H](CC(C)C)C(=O)N[C@@H](CC(C)C)C(=O)N[C@@H](CC=C)C(=O)OCc1ccccc1, 14-membered ring
# [17] = from C=CC[C@H](NC(=O)OC(C)(C)C)C(=O)N[C@@H](Cc1cn(S(=O)(=O)c2ccc(C)cc2)cn1)C(=O)NCC(=O)N[C@@H](CC=C)C(=O)OC, 14-membered ring
# [18] = from C=CCCOc1ccc(C[C@H](NC(=O)OC(C)(C)C)C(=O)N[C@@H](CC(C)C)C(=O)N[C@@H](CC=C)C(=O)OC)cc1, 18-membered ring
# [19] = from C=CCSC[C@H](NC(=O)OC(C)(C)C)C(=O)N[C@@H](CC(C)C)C(=O)N[C@@H](CC(C)C)C(=O)N[C@@H](CSCC=C)C(=O)OC, 18-membered ring
# [20] = from C=CCOc1ccc(C[C@H](NC(=O)OC(C)(C)C)C(=O)N[C@@H](CC(C)C)C(=O)N[C@@H](CC=C)C(=O)OC)cc1, 17-membered ring
# [21] = from C=CCOC[C@H](NC(=O)OC(C)(C)C)C(=O)N[C@@H](CC(C)C)C(=O)N[C@@H](CC(C)C)C(=O)N[C@@H](COCC=C)C(=O)OC, 18-membered ring
# [22] = from C=CC[C@H](NC(=O)CNC(=O)[C@@H]1CCCN1C(=O)[C@H](CC=C)NC(=O)OC(C)(C)C)C(=O)OC, 14-membered ring
compound,measurement,setting,value
Fmoc-Gln-Ser-Gln-Gln-Thr-Phe-R8-Asn-Leu-Trp-Arg-Leu-Leu-S5-Gln-Asn-NH-resin,"ring closure, conversion by HPLC",[1]; 33-membered ring,90%
same,"ring closure, conversion by HPLC",[2]; 33-membered ring,75%
same,"ring closure, conversion by HPLC",[3]; 33-membered ring,70%
same,"ring closure, conversion by HPLC",[4]; 33-membered ring,85%
same,"ring closure, conversion by HPLC",[5]; 33-membered ring,80%
COC(=O)[C@@H]1CCC=CCCOc2ccc(cc2)C[C@H](NC(=O)OC(C)(C)C)C(=O)N[C@@H](CC(C)C)C(=O)N1 [Boc-Tyr(O-homoallyl)-Leu-homoallylGly-OMe],"ring closure, isolated yield",[6]; [15],68%
same,"ring closure, isolated yield",[7]; [15],77%
same,"ring closure, isolated yield",[8]; [15],70%
same,"ring closure, isolated yield",[9]; [15],66%
same,"ring closure, isolated yield",[10]; [15],44%
same,"ring closure, isolated yield",[11]; [15],26%
same,"ring closure, isolated yield",[12]; [15],24%
C=CCCCCCC[C@@](C)(NC(=O)[C@H](Cc1ccccc1)NC(=O)[C@@H](NC(=O)[C@H](CCC(N)=O)NC(=O)[C@H](CCC(N)=O)NC(=O)[C@H](CO)NC(=O)[C@H](CCC(N)=O)NC(=O)OCC1c2ccccc2-c2ccccc21)[C@@H](C)O)C(=O)N[C@@H](CC(N)=O)C(=O)N[C@@H](CC(C)C)C(=O)N[C@@H](Cc1c[nH]c2ccccc12)C(=O)N[C@@H](CCCNC(=N)N)C(=O)N[C@@H](CC(C)C)C(=O)N[C@@H](CC(C)C)C(=O)N[C@@](C)(CCCC=C)C(=O)N[C@@H](CCC(N)=O)C(=O)N[C@@H](CC(N)=O)C(N)=O,"ring closure, conversion by HPLC",[13]; 33-membered ring,92%
CC(C)C[C@@H]1NC(=O)[C@@H](NC(=O)OC(C)(C)C)CC=CC[C@@H](C(=O)OCc2ccccc2)NC(=O)[C@H](CC(C)C)NC1=O [Boc-allylGly-Leu-Leu-allylGly-OBn],"ring closure, isolated yield",[6]; [16],70%
same,"ring closure, isolated yield",[7]; [16],74%
same,"ring closure, isolated yield",[8]; [16],61%
same,"ring closure, isolated yield",[9]; [16],64%
same,"ring closure, isolated yield",[10]; [16],39%
same,"ring closure, isolated yield",[11]; [16],32%
same,"ring closure, isolated yield",[12]; [16],30%
C=CCCCCCC[C@@](C)(NC(=O)[C@H](CC(N)=O)NC(=O)[C@@H](NC(=O)OCC1c2ccccc2-c2ccccc21)C(C)C)C(=O)N[C@@H](CCCCN)C(=O)N[C@@H](CCCCN)C(=O)N[C@H](C(=O)N[C@@H](CC(C)C)C(=O)NCC(=O)N[C@@H](CCCCN)C(=O)N[C@@](C)(CCCC=C)C(=O)N[C@H](C(=O)N[C@@H](CCCCN)C(=O)N[C@H](C(=O)N[C@H](C(=O)N[C@@H](CCCCN)C(N)=O)C(C)C)C(C)C)[C@@H](C)CC)[C@@H](C)CC,"ring closure, conversion by HPLC",[13]; 33-membered ring,88%
COC(=O)[C@@H]1CC=CC[C@H](NC(=O)OC(C)(C)C)C(=O)N[C@@H](Cc2cn(S(=O)(=O)c3ccc(C)cc3)cn2)C(=O)NCC(=O)N1 [Boc-allylGly-His(Tos)-Gly-allylGly-OMe],"ring closure, isolated yield",[6]; [17],14%
same,"ring closure, isolated yield",[7]; [17],18%
same,"ring closure, isolated yield",[8]; [17],< 10%
same,"ring closure, isolated yield",[9]; [17],12%
same,"ring closure, isolated yield",[10]; [17],< 5%
C=CCCC[C@](C)(NC(=O)[C@H](CC(C)C)NC(=O)[C@H](CC(C)C)NC(=O)[C@H](CC(=O)O)NC(=O)[C@](C)(CCCC=C)NC(=O)[C@H](Cc1ccccc1)NC(=O)[C@@H](NC(=O)[C@@H](NC(=O)OCC1c2ccccc2-c2ccccc21)[C@@H](C)CC)[C@@H](C)O)C(=O)N[C@@H](Cc1ccc(O)cc1)C(=O)N[C@@H](Cc1ccc(O)cc1)C(=O)NCC(=O)N1CCC[C@H]1C(N)=O [Fmoc-Ile-Thr-Phe-S5-Asp-Leu-Leu-S5-Tyr-Tyr-Gly-Pro-NH-resin],"ring closure, conversion by HPLC",[13]; 21-membered ring,90%
COC(=O)[C@@H]1CC=CCCOc2ccc(cc2)C[C@H](NC(=O)OC(C)(C)C)C(=O)N[C@@H](CC(C)C)C(=O)N1 [Boc-Tyr(O-homoallyl)-Leu-allylGly-OMe],"ring closure, isolated yield",[6]; [18],54%
same,"ring closure, isolated yield",[7]; [18],61%
same,"ring closure, isolated yield",[8]; [18],55%
same,"ring closure, isolated yield",[9]; [18],60%
same,"ring closure, isolated yield",[10]; [18],24%
same,"ring closure, isolated yield",[11]; [18],21%
same,"ring closure, isolated yield",[12]; [18],17%
Fmoc-Ile-Thr-Phe-S5-Asp-Leu-Leu-S5-Tyr-Tyr-Gly-Pro-NH-resin,"ring closure, conversion by HPLC",[1]; 21-membered ring,90%
same,"ring closure, conversion by HPLC",[3]; 21-membered ring,75%
same,"ring closure, conversion by HPLC",[14]; 21-membered ring,81%
same,"ring closure, conversion by HPLC",[4]; 21-membered ring,80%
same,"ring closure, conversion by HPLC",[5]; 21-membered ring,70%
Fmoc-Val-Asn-R8-Lys-Lys-Ile-Leu-Gly-Lys-S5-Ile-Lys-Val-Val-Lys-NH-resin,"ring closure, conversion by HPLC",[1]; 33-membered ring,94%
same,"ring closure, conversion by HPLC",[2]; 33-membered ring,70%
same,"ring closure, conversion by HPLC",[3]; 33-membered ring,55%
same,"ring closure, conversion by HPLC",[14]; 33-membered ring,80%
same,"ring closure, conversion by HPLC",[4]; 33-membered ring,85%
same,"ring closure, conversion by HPLC",[5]; 33-membered ring,60%
COC(=O)[C@@H]1CSCC=CCSC[C@H](NC(=O)OC(C)(C)C)C(=O)N[C@@H](CC(C)C)C(=O)N[C@@H](CC(C)C)C(=O)N1 [Boc-Cys(S-allyl)-Leu-Leu-Cys(S-allyl)-OMe],"ring closure, isolated yield",[6]; [19],77%
same,"ring closure, isolated yield",[7]; [19],81%
same,"ring closure, isolated yield",[8]; [19],79%
same,"ring closure, isolated yield",[9]; [19],83%
same,"ring closure, isolated yield",[10]; [19],42%
same,"ring closure, isolated yield",[11]; [19],40%
same,"ring closure, isolated yield",[12]; [19],33%
COC(=O)[C@@H]1CC=CCOc2ccc(cc2)C[C@H](NC(=O)OC(C)(C)C)C(=O)N[C@@H](CC(C)C)C(=O)N1 [Boc-Tyr(O-allyl)-Leu-allylGly-OMe],"ring closure, isolated yield",[6]; [20],58%
same,"ring closure, isolated yield",[7]; [20],71%
same,"ring closure, isolated yield",[8]; [20],63%
same,"ring closure, isolated yield",[9]; [20],66%
same,"ring closure, isolated yield",[10]; [20],45%
same,"ring closure, isolated yield",[11]; [20],47%
same,"ring closure, isolated yield",[12]; [20],41%
Fmoc-Ala-Glu-Leu-Glu-Arg-S5-His-Thr-Phe-S5-Leu-His-Gln-Arg-NH-resin,"ring closure, conversion by HPLC",[1]; 21-membered ring,85%
same,"ring closure, conversion by HPLC",[2]; 21-membered ring,80%
same,"ring closure, conversion by HPLC",[3]; 21-membered ring,70%
same,"ring closure, conversion by HPLC",[14]; 21-membered ring,88%
same,"ring closure, conversion by HPLC",[4]; 21-membered ring,92%
C=CCCC[C@](C)(NC(=O)[C@H](Cc1ccccc1)NC(=O)[C@@H](NC(=O)[C@H](Cc1c[nH]cn1)NC(=O)[C@](C)(CCCC=C)NC(=O)[C@H](CCCNC(=N)N)NC(=O)[C@H](CCC(=O)O)NC(=O)[C@H](CC(C)C)NC(=O)[C@H](CCC(=O)O)NC(=O)[C@H](C)NC(=O)OCC1c2ccccc2-c2ccccc21)[C@@H](C)O)C(=O)N[C@@H](CC(C)C)C(=O)N[C@@H](Cc1c[nH]cn1)C(=O)N[C@@H](CCC(N)=O)C(=O)N[C@@H](CCCNC(=N)N)C(N)=O,"ring closure, conversion by HPLC",[13]; 21-membered ring,93%
COC(=O)[C@@H]1COCC=CCOC[C@H](NC(=O)OC(C)(C)C)C(=O)N[C@@H](CC(C)C)C(=O)N[C@@H](CC(C)C)C(=O)N1 [Boc-Ser(O-allyl)-Leu-Leu-Ser(O-allyl)-OMe],"ring closure, isolated yield",[6]; [21],73%
same,"ring closure, isolated yield",[7]; [21],76%
same,"ring closure, isolated yield",[9]; [21],74%
same,"ring closure, isolated yield",[10]; [21],44%
same,"ring closure, isolated yield",[11]; [21],36%
same,"ring closure, isolated yield",[12]; [21],34%
COC(=O)[C@@H]1CC=CC[C@H](NC(=O)OC(C)(C)C)C(=O)N2CCC[C@H]2C(=O)NCC(=O)N1 [Boc-allylGly-Pro-Gly-allylGly-OMe],"ring closure, isolated yield",[6]; [22],37%
same,"ring closure, isolated yield",[7]; [22],48%
same,"ring closure, isolated yield",[8]; [22],41%
same,"ring closure, isolated yield",[9]; [22],36%
same,"ring closure, isolated yield",[10]; [22],20%
same,"ring closure, isolated yield",[11]; [22],17%
same,"ring closure, isolated yield",[12]; [22],18%
